Entries after “also recorded” stand apart in the source; their conditions may differ.
Legend:
[1] = system: Lactobacillus jensenii ATCC 25258; assay: Lactobacillus toxicity testing (CFU); type: cell-based
Description: (§1) Reference strains of L. crispatus and L. jensenii were obtained from the ATCC (Manassas, Va.) and cultured on Columbia blood agar plates at 35° C. in air enriched with 6% CO2. Bacterial suspensions were prepared in saline or ACES buffer to a density of 2 McFarland units (˜2×10^8 bacteria/mL), and exposed to PD (300 μM) or DMSO (10%) for 30 minutes at 37° C. After incubation, the cells were serially diluted in ACES buffer, pH 7.0 (Sigma-Aldrich, St. Louis, Mo.) and plated on blood agar plates to quantify colony forming unit per mL (CFU/mL)
(§2) Different bacterial strains were incubated with 300 μM PD or solvent DMSO-containing control media at 37° C. for 30 min and plated on blood agar plates to estimate their corresponding colony forming units per ml (CFU/ml). Less than 1 log difference between control and test CFU is considered non-toxic 17.

[2] = system: Lactobacillus crispatus ATCC 33197; assay: Lactobacillus toxicity testing (CFU); type: cell-based
Description: as §1, §2

[3] = system: Lactobacillus jensenii LBP 28Ab; assay: Lactobacillus toxicity testing (CFU); type: cell-based
Description: as §1, §2

[4] = system: VSV-Gpp, HIVpp; type: cell-based, HIV pseudotyped lentiviruses
[5] = system: HIV-1 92RW016; assay: Anti-HIV efficacy in fresh human PBMC (reverse transcriptase activity); type: cell-based; details: Human immunodeficiency virus 1, PBMC, 168 h; 92RW016 (clade A, R5); PBMCs, MOI = 0.1, 7 days
[6] = Primary cells toxicity testing (LDH); type: cell-based; details: human, primary CD4+ T-lymphocytes, macrophages and dendritic cells, up to 14 days
Description: Increasing concentrations were incubated with primary CD4^+ T-lymphocytes, macrophages and dendritic cells at 37° C. and the amounts of lactate dehydrogenase (LDH) present in the culture media were quantified after 0, 7 and 14 days. Error bars represent the standard deviation from two independent experiments.
Primary cells were seeded at 6×10^3 cells/well in flat bottom 96-well plates in triplicates in the presence of increasing concentrations of PD. We used the permeabilization agent saponin (0.1%) as positive control. After 0, 7 and 14 days, the amounts of lactate dehydrogenase (LDH) in the cell culture media were quantified using the LDH Cytotoxicity Assay Kit (Cayman Chemical, Ann Arbor, Mich.).
Cell death can occur either by apoptosis or by necrosis. Necrosis is accompanied by mitochondrial swelling and increased plasma membrane permeability, whereas apoptosis involves an articulated breakdown of the cell into membrane-bound apoptotic bodies. Lactate dehydrogenase (LDH) is a soluble cytosolic enzyme that is released into the culture medium following loss of membrane integrity resulting from either apoptosis or necrosis. LDH activity, therefore, can be used as an indicator of cell membrane integrity and serves as a general means to assess cytotoxicity resulting from chemical compounds or environmental toxic factors. […]

[7] = system: HIV-1 RU132; assay: HIV infectivity assay in TZM-bl cells; type: cell-based; details: RU132 (clade G, R5); for IC50: Human immunodeficiency virus 1, TZM-bl
[8] = system: HIV-1 93IN101; assay: HIV infectivity assay in TZM-bl cells; type: cell-based; details: 93IN101 (clade C, R5); for IC50: Human immunodeficiency virus 1, TZM-bl
[9] = system: VSV-Gpp
[10] = system: pseudotyped NL4.3 Env-eGFP/gp160 Env virus; assay: HIV-1 cell-to-cell transfer assay (DC to Jurkat T cells); type: cell-based; details: 10 μM PD added to DC 2 h after virus, washed after 2 h
[11] = system: VSV-Gpp; type: physicochemical, HIV lentivirus pseudotyped with VSV-G
[12] = system: HIV-1 92UG029; assay: Anti-HIV efficacy in fresh human PBMC (reverse transcriptase activity); type: cell-based; details: Human immunodeficiency virus 1, PBMC, 168 h; 92UG029 (clade A, X4); PBMCs, MOI = 0.1, 7 days
[13] = system: HIV-1 96USNG31; assay: as above; type: cell-based; details: Human immunodeficiency virus 1, PBMC, 168 h; 96USNG31 (clade C, X4/R5); PBMCs, MOI = 0.1, 7 days
[14] = system: HIV-1 RU132; assay: as above; type: cell-based; details: Human immunodeficiency virus 1, PBMC, 168 h; RU132 (clade G, R5); PBMCs, MOI = 0.1, 7 days
[15] = system: HIV-1 93BR029; assay: microbe, parasite or virus in culture; type: cell-based; details: 93BR029 (clade F, R5); for IC50: Human immunodeficiency virus 1, TZM-bl
[16] = Compound cytotoxicity in uninfected PBMC (MTS assay); details: human
[17] = system: freshly activated human PBMC; assay: as above; details: freshly activated PBMCs, uninfected plates, MTS assay, 7 days
[18] = system: HCVcc; assay: HCVcc cell attachment assay; type: cell-based, HCV; details: 300 μM PD, 37° C., 90 min; cell-bound viral RNA by qRT-PCR
[19] = 300 μM PD, less than 1 log difference is considered non-toxic

Structure (SMILES): N=C1Sc2ccccc2C2=NCCCN12 [PD, PD 404,182]
- Log(Control) − Log(PD) [1, 19]: −0.122
- CFU of Lactobacillus treated with 300 μM PD ([1]; 30 min, 37° C.): 7,533,333 CFU
- Log(Control) − Log(PD) [2, 19]: −0.019
- CFU of Lactobacillus treated with 300 μM PD ([2]; 30 min, 37° C.): 7,260,000 CFU
- Log(Control) − Log(PD) [3, 19]: −0.021
- CFU of Lactobacillus treated with 300 μM PD ([3]; 30 min, 37° C.): 10,033,333 CFU
- increase in IC50 [4]: 50-80 fold
- IC50 [5]: 0.22 µM
- IC90 [5]: 0.54 µM
- CC50 at 14 days [6]: > 300 µM
- IC50 ([7]; PD in DMEM + 10% FBS): 0.7 µM
- IC50 ([7]; PD in cervical fluids): 0.9 µM
- IC50 ([7]; PD in seminal plasma): 0.74 µM
- IC90 ([7]; PD in DMEM + 10% FBS): 3.1 ± 0.2 µM
- IC90 ([7]; PD in cervical fluids): 3.9 ± 0.5 µM
- IC90 ([7]; PD in seminal plasma): 3.28 ± 0.22 µM
- IC50 (DMEM; IC90 per footnote) ([8]; PD in DMEM + 10% FBS): 5.1 ± 0.3 µM
- IC50 (Cervical Fluid; IC90 per footnote) ([8]; PD in cervical fluids): 5.5 ± 0.2 µM
- IC50 (Seminal Plasma; IC90 per footnote) ([8]; PD in seminal plasma): 5.36 ± 0.37 µM
- IC50 ([8]; PD in DMEM + 10% FBS): 1.5 µM
- IC50 ([8]; PD in cervical fluids): 1.8 µM
- IC50 ([8]; PD in seminal plasma): 1.76 µM
- activity loss in cervical fluid [9]: no activity loss
- DC-mediated transmission of HIV-1 to T cells [10]: prevents subsequent T cell infection with the pseudotyped virus
- long-term stability (antiviral potency) ([11]; pH 4): retains full antiviral potency; also recorded: retains its full potency
- long-term stability ([11]; pH 7): stable only at room temperature and 4 °C; also recorded: significantly compromised PD activity after 2 weeks
- stability in HEC gel ([11]; pH 7): not stable
- IC50 [12]: 1.18 µM
- IC90 [12]: 4.67 µM
- IC50 [13]: 0.14 µM
- IC90 [13]: 1.62 µM
- IC50 [14]: 0.2 µM
- IC90 [14]: 0.53 µM
- IC90 ([15]; PD in DMEM + 10% FBS): 3.5 ± 0.2 µM
- IC90 ([15]; PD in cervical fluids): 4.6 ± 0.3 µM
- IC90 ([15]; PD in seminal plasma): 3.72 ± 0.26 µM
- IC50 ([15]; PD in DMEM + 10% FBS): 0.7 µM
- IC50 ([15]; PD in cervical fluids): 1.2 µM
- IC50 ([15]; PD in seminal plasma): 0.85 µM
- cytotoxicity at 7 days, 200 μM [16]: 48%
- CC50 at 7 days ([16]; CC50, freshly activated PBMCs, uninfected plates, MTS assay, 7 days): ~200 µM
- CC50 [17]: > 200 µM
- attachment of PD-treated HCVcc to cells [18]: binds to cells comparably to control DMSO-treated virus

From patent US20140227335A1 (priority 2012, published 2014)
